# In US9926281B2 (priority 2014, dated 2018):
# Tests used:
# human MMP13 = human MMP13 (Homo sapiens (Human), UniProt P45452); conditions: read-out: hMMP-13 potency IC50
# Experimental: Human MMP13 is preactivated by incubated the enzyme in the same buffer complemented with 1 mM freshly prepared p-Aminophenylmercuric acetate (AMPA) for 1 hour at 37° C.
# human TACE = human TACE (Homo sapiens (Human), UniProt P78536); conditions: read-out: TACE potency IC50
# human ADAMTS-5 = human ADAMTS-5 (Homo sapiens (Human), UniProt Q9UNA0); conditions: read-out: hADAMTS-5 potency IC50
# Chain of human ADAMTS-5 (Q9UNA0 262-930): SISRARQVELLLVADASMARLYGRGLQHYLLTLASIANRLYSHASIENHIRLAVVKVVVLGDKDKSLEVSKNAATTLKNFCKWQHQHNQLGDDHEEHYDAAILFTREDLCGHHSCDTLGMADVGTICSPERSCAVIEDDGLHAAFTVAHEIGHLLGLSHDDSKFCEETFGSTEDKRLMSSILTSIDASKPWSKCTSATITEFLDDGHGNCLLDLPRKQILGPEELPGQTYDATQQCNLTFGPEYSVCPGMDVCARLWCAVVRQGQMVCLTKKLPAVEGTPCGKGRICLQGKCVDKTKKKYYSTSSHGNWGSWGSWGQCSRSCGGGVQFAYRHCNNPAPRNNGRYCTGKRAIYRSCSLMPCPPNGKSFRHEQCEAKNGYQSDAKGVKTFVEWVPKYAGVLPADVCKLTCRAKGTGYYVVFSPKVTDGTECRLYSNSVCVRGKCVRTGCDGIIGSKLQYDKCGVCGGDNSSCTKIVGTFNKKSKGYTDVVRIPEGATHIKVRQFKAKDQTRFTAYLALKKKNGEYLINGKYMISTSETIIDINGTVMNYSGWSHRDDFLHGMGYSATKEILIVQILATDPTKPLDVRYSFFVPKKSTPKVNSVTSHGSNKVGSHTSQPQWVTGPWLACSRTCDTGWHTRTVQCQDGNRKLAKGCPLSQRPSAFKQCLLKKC
# Experimental: Finally, the fluorescence is read on the Envision (Perkin Elmer) after an incubation of 90 min at 37° C.
# Chain of human TACE (P78536 whole entry, looked up, change not shown): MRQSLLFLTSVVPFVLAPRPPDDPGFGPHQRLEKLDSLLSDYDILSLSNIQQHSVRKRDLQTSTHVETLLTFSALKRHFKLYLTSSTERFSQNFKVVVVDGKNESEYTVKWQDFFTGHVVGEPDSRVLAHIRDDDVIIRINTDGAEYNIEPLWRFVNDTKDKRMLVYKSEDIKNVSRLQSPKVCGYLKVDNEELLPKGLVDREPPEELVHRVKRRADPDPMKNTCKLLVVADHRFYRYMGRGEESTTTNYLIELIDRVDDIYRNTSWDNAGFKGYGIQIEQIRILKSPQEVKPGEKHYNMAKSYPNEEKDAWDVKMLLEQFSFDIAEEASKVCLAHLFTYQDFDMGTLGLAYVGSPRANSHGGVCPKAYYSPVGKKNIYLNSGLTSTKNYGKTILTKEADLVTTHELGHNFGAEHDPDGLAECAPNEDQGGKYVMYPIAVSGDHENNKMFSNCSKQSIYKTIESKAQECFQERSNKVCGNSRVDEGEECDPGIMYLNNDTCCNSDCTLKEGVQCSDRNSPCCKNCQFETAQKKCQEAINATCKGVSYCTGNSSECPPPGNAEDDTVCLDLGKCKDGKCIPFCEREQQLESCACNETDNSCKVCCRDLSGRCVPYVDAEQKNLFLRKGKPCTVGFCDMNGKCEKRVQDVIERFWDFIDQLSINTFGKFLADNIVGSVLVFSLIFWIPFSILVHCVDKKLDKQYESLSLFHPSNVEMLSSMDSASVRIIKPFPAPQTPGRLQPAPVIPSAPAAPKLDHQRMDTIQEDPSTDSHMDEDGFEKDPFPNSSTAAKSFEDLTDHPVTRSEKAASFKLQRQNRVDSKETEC
SMILES,IC50 (human MMP13) [µM],IC50 (human TACE) [µM],IC50 (human ADAMTS-5) [µM]
"CN(C)Cc1ccc(C2(CCC(=O)N3CCN(c4cccc(Cl)c4)CC3)NC(=O)NC2=O)cc1 (stereo not shown) [compound 83, 5-[3-[4-(3-chlorophenyl)piperazin-1-yl]-3-oxo-propyl]-5-[4-(dimethylaminomethyl)phenyl]imidazolidine-2,4-dione]",> 4,2.49,–
"CN(C)CC1(CCC(=O)N2CCN(c3cccc(Cl)c3)CC2)NC(=O)NC1=O (stereo not shown) [compound 118, 5-[3-[4-(3-chlorophenyl)piperazin-1-yl]-3-oxo-propyl]-5-(dimethylaminomethyl)imidazolidine-2,4-dione]",> 20,> 4,–
"Cc1ccc(Cl)cc1N1CCN(C(=O)CCC2(CN(C)C)NC(=O)NC2=O)CC1 (stereo not shown) [compound 120, 5-[3-[4-(5-chloro-2-methyl-phenyl)piperazin-1-yl]-3-oxo-propyl]-5-(dimethylaminomethyl)imidazolidine-2,4-dione]",> 20,> 4,–
"CCC1(CCC(=O)N2CCN(c3cccc(Cl)c3)CC2)NC(=O)NC1=O (stereo not shown) [compound 122, 5-[3-[4-(3-chlorophenyl)piperazin-1-yl]-3-oxo-propyl]-5-ethyl-imidazolidine-2,4-dione]",> 20,> 4,–
"COCC1(CC(C)C(=O)N2CCN(c3cc(Cl)cc(Cl)c3C)[C@@H](C)C2)NC(=O)NC1=O (stereo partly drawn) [compound 430, 5-(3-((S)-4-(3,5-dichloro-2-methylphenyl)-3-methylpiperazin-1-yl)-2-methyl-3-oxopropyl)-5-(methoxymethyl)imidazolidine-2,4-dione]",> 20,–,–
"COC(CC1(C)NC(=O)NC1=O)C(=O)N1CCN(c2ccc(F)c(Cl)c2)[C@@H](C)C1 (stereo partly drawn) [compound 450, 5-(3-((S)-4-(3-chloro-4-fluorophenyl)-3-methylpiperazin-1-yl)-2-methoxy-3-oxopropyl)-5-methylimidazolidine-2,4-dione]",–,> 20,0.058
"C[C@H]1CN(C(=O)CCC2(c3cccnc3)NC(=O)NC2=O)CCN1c1ccc(Cl)c(Cl)c1 (stereo partly drawn) [compound 453, 5-[3-[(3S)-4-(3,4-dichlorophenyl)-3-methyl-piperazin-1-yl]-3-oxo-propyl]-5-(3-pyridyl)imidazolidine-2,4-dione]",–,3.18,0.036
"Cc1cccc(C2(CCC(=O)N3CCN(c4ccc(Cl)c(F)c4)[C@@H](C)C3)NC(=O)NC2=O)n1 (stereo partly drawn) [compound 454, 5-[3-[(3S)-4-(4-chloro-3-fluoro-phenyl)-3-methyl-piperazin-1-yl]-3-oxo-propyl]-5-(6-methyl-2-pyridyl)imidazolidine-2,4-dione]",–,2.98,0.035
"Cc1cc(N2CCN(C(=O)C(C)CC3(C4CC4)NC(=O)NC3=O)C[C@@H]2C)ccc1F (stereo partly drawn) [compound 456, 5-cyclopropyl-5-(3-((S)-4-(4-fluoro-3-methylphenyl)-3-methylpiperazin-1-yl)-2-methyl-3-oxopropyl)imidazolidine-2,4-dione]",–,> 4,0.027
"C[C@H]1CN(C(=O)CCC2(c3ccccn3)NC(=O)NC2=O)CCN1c1ccc(Cl)c(Cl)c1 (stereo partly drawn) [compound 458, 5-[3-[(3S)-4-(3,4-dichlorophenyl)-3-methyl-piperazin-1-yl]-3-oxo-propyl]-5-(2-pyridyl)imidazolidine-2,4-dione]",–,2.38,0.021
"C[C@H]1CN(C(=O)CCC2(c3ccccn3)NC(=O)NC2=O)CCN1c1cc(Cl)cc(Cl)c1 (stereo partly drawn) [compound 459, 5-[3-[(3S)-4-(3,5-dichlorophenyl)-3-methyl-piperazin-1-yl]-3-oxo-propyl]-5-(2-pyridyl)imidazolidine-2,4-dione]",–,1.74,0.046
"C[C@H]1CN(C(=O)CCC2(c3cnccn3)NC(=O)NC2=O)CCN1c1ccc(Cl)c(Cl)c1 (stereo partly drawn) [compound 460, 5-[3-[(3S)-4-(3,4-dichlorophenyl)-3-methyl-piperazin-1-yl]-3-oxo-propyl]-5-pyrazin-2-yl-imidazolidine-2,4-dione]",–,> 4,0.03
"C[C@H]1CN(C(=O)CCC2(c3cnccn3)NC(=O)NC2=O)CCN1c1cc(Cl)cc(Cl)c1 (stereo partly drawn) [compound 461, 5-[3-[(3S)-4-(3,5-dichlorophenyl)-3-methyl-piperazin-1-yl]-3-oxo-propyl]-5-pyrazin-2-yl-imidazolidine-2,4-dione]",–,2.54,0.039
"C[C@H]1CN(C(=O)CCC2(c3ncccn3)NC(=O)NC2=O)CCN1c1ccc(Cl)c(Cl)c1 (stereo partly drawn) [compound 462, 5-[3-[(3S)-4-(3,4-dichlorophenyl)-3-methyl-piperazin-1-yl]-3-oxo-propyl]-5-pyrimidin-2-yl-imidazolidine-2,4-dione]",–,> 4,0.022
"C[C@H]1CN(C(=O)CCC2(c3ncccn3)NC(=O)NC2=O)CCN1c1cc(F)cc(Cl)c1 (stereo partly drawn) [compound 463, 5-[3-[(3S)-4-(3-chloro-5-fluoro-phenyl)-3-methyl-piperazin-1-yl]-3-oxo-propyl]-5-pyrimidin-2-yl-imidazolidine-2,4-dione]",–,> 4,0.046
"Cc1ccc(C2(CCC(=O)N3CCN(c4ccc(Cl)c(Cl)c4)[C@@H](C)C3)NC(=O)NC2=O)cn1 (stereo partly drawn) [compound 464, 5-[3-[(3S)-4-(3,4-dichlorophenyl)-3-methyl-piperazin-1-yl]-3-oxo-propyl]-5-(6-methyl-3-pyridyl)imidazolidine-2,4-dione]",–,> 4,0.026
"C[C@H]1CN(C(=O)CCC2(c3cocn3)NC(=O)NC2=O)CCN1c1cc(Cl)cc(Cl)c1 (stereo partly drawn) [compound 465, 5-[3-[(3S)-4-(3,5-dichlorophenyl)-3-methyl-piperazin-1-yl]-3-oxo-propyl]-5-oxazol-4-yl-imidazolidine-2,4-dione]",–,3.5,0.062
"C[C@H]1CN(C(=O)CCC2(c3cn(C)cn3)NC(=O)NC2=O)CCN1c1cc(Cl)cc(Cl)c1 (stereo partly drawn) [compound 466, 5-[3-[(3S)-4-(3,5-dichlorophenyl)-3-methyl-piperazin-1-yl]-3-oxo-propyl]-5-(1-methylimidazol-4-yl)imidazolidine-2,4-dione]",–,2.64,0.055
"C[C@H]1CN(C(=O)CCC2(c3cn(C)cn3)NC(=O)NC2=O)CCN1c1ccc(F)c(Cl)c1 (stereo partly drawn) [compound 467, 5-[3-[(3S)-4-(3-chloro-4-fluoro-phenyl)-3-methyl-piperazin-1-yl]-3-oxo-propyl]-5-(1-methylimidazol-4-yl)imidazolidine-2,4-dione]",–,> 4,0.042
"Cc1cc(N2CCN(C(=O)CC[C@@]3(C)NC(=O)NC3=O)C[C@@H]2C)cc(C)c1Cl [compound 470, (5R)-5-[3-[(3S)-4-(4-chloro-3,5-dimethyl-phenyl)-3-methyl-piperazin-1-yl]-3-oxo-propyl]-5-methyl-imidazolidine-2,4-dione]",–,2.93,0.383
"C[C@H]1CN(C(=O)CC[C@@]2(C)NC(=O)NC2=O)CCN1c1ccc(Cl)c(C(F)(F)F)c1 [compound 472, (5R)-5-[3-[(3S)-4-[4-chloro-3-(trifluoromethyl)phenyl]-3-methyl-piperazin-1-yl]-3-oxo-propyl]-5-methyl-imidazolidine-2,4-dione]",–,> 4,0.899
"COCC1(CC(C)C(=O)N2CCN(c3ccc(Cl)c(C(F)(F)F)c3)[C@@H](C)C2)NC(=O)NC1=O (stereo partly drawn) [compound 478, 5-{3-[(S)-4-(4-Chloro-3-trifluoromethyl-phenyl)-3-methyl-piperazin-1-yl]-2-methyl-3-oxo-propyl}-5-methoxymethyl-imidazolidine-2,4-dione]",–,> 4,0.061
